Source: ChEMBL document CHEMBL4229479, “Synthesis and evaluation of panaxatriol derivatives as Na+, K+-ATPase inhibitors” (Bioorg Med Chem Lett, 2018)

Assays:
[1] = target: Sodium/potassium-transporting ATPase; assay: Inhibition of human Na+/K+-ATPase assessed as reduction in inorganic phosphate release from ATP incubated for 15 mins followed by ATP addition measured over 15 mins in presence of Na+/K+ by colorimetric method; format: protein-complex assay
[2] = Arrhythmogenic activity in Langendorff-perfused heart rat model at 0.26 umol/L administered for 30 mins following 60 mins perfusion with K-H solution; format: toxicity, tissue-based; details: 0.5 h, 0.26 µM

Row | IC50 [1] | SMILES | Activity [2]
1 | 1230 nM | CC1(C)CCC[C@](C)([C@H]2CC[C@]3(C)[C@@H]2C(=O)C[C@@H]2[C@@]4(C)CCC(=O)OC(C)(C)[C@@H]4[C@@H](O)C[C@]23C)O1 | 
2 | 410 nM | CC1(C)CCC[C@](C)([C@H]2CC[C@]3(C)[C@@H]2[C@H](O)C[C@@H]2[C@@]4(C)CCC(=O)NC(C)(C)[C@@H]4C(=O)C[C@]23C)O1 | 
3 | 700 nM | CC1(C)CCC[C@](C)([C@H]2CC[C@]3(C)[C@@H]2C(=O)C[C@@H]2[C@@]4(C)CCC(=O)C(C)(C)[C@@H]4[C@@H](O)C[C@]23C)O1 | 
4 | 1130 nM | CC1(C)CCC[C@](C)([C@H]2CC[C@]3(C)[C@@H]2C(=O)C[C@@H]2[C@@]4(C)CCC(=O)OC(C)(C)[C@@H]4C(=O)C[C@]23C)O1 | 
5 | 360 nM | CC1(C)CCC[C@](C)([C@H]2CC[C@]3(C)[C@@H]2[C@H](O)C[C@@H]2[C@@]4(C)Cc5c([nH]c6ccc(OC(F)(F)F)cc56)C(C)(C)[C@@H]4C(=O)C[C@]23C)O1 | 
6 | 410 nM | COC(=O)CC[C@@]1(C)CC(=O)C[C@]2(C)[C@@H]1C[C@@H](O)[C@@H]1[C@@H]([C@@]3(C)CCCC(C)(C)O3)CC[C@]12C | 
7 | 910 nM | CC1(C)CCC[C@](C)([C@H]2CC[C@]3(C)[C@@H]2[C@H](O)C[C@@H]2[C@@]4(C)Cc5c([nH]c6ccc(F)cc56)C(C)(C)[C@@H]4C(=O)C[C@]23C)O1 | 
8 | 1090 nM | C=C(C)[C@@H]1C(=O)C[C@]2(C)[C@H](C[C@@H](O)[C@@H]3[C@@H]([C@@]4(C)CCCC(C)(C)O4)CC[C@]32C)[C@@]1(C)CCC(=O)OC | 
9 | 300 nM | CC1(C)CCC[C@](C)([C@H]2CC[C@]3(C)[C@@H]2[C@H](O)C[C@@H]2[C@@]4(C)CC[C@H](OCc5ccccc5)C(C)(C)[C@@H]4C(=O)C[C@]23C)O1 | 
10 | 1140 nM | CC1(C)CCC[C@](C)([C@H]2CC[C@]3(C)[C@@H]2[C@H](O)C[C@@H]2[C@@]4(C)CCC(=O)C(C)(C)[C@@H]4[C@@H](O)C[C@]23C)O1 | 
11 | 1180 nM | CC1(C)CCC[C@](C)([C@H]2CC[C@]3(C)[C@@H]2[C@H](O)C[C@@H]2[C@@]4(C)CCC(=O)OC(C)(C)[C@@H]4C(=O)C[C@]23C)O1 | 

Further lines, the molecule ahead of its results:

Row | SMILES | IC50 [1] | Activity [2]
12 | CC1(C)CCC[C@](C)([C@H]2CC[C@]3(C)[C@@H]2[C@H](OCc2ccccc2)C[C@@H]2[C@@]4(C)CCC(=O)C(C)(C)[C@@H]4[C@@H](OCc4ccccc4)C[C@]23C)O1 | 870 nM | 
13 | CCO[C@H]1CC[C@]2(C)[C@H]3C[C@@H](O)[C@@H]4[C@@H]([C@@]5(C)CCCC(C)(C)O5)CC[C@@]4(C)[C@]3(C)CC(=O)[C@H]2C1(C)C | 1140 nM | 
14 | CC1(C)CCC[C@](C)([C@H]2CC[C@]3(C)[C@@H]2[C@H](O)C[C@@H]2[C@@]4(C)CC[C@H](OCc5ccc(OC(F)(F)F)cc5)C(C)(C)[C@@H]4C(=O)C[C@]23C)O1 | 450 nM | 
15 | CC1(C)CCC[C@](C)([C@H]2CC[C@]3(C)[C@@H]2[C@H](O)C[C@@H]2[C@@]4(C)CC[C@H](Oc5noc(=O)[nH]5)C(C)(C)[C@@H]4C(=O)C[C@]23C)O1 | 960 nM | 
16 | CC1(C)CCC[C@](C)([C@H]2CC[C@]3(C)[C@@H]2C(=O)C[C@@H]2[C@@]4(C)CCC(=O)C(C)(C)[C@@H]4C(=O)C[C@]23C)O1 | 760 nM | 
17 | CC1(C)CCC[C@](C)([C@H]2CC[C@]3(C)[C@@H]2[C@H](O)C[C@@H]2[C@@]4(C)CCC(=O)C(C)(C)[C@@H]4[C@@H](OCc4ccccc4)C[C@]23C)O1 | 330 nM | 
18 | C=CCO[C@H]1C[C@]2(C)[C@H](C[C@@H](OCC=C)[C@@H]3[C@@H]([C@@]4(C)CCCC(C)(C)O4)CC[C@]32C)[C@@]2(C)CCC(=O)C(C)(C)[C@H]12 | 750 nM | 
19 | CC1(C)CCC[C@](C)([C@H]2CC[C@]3(C)[C@@H]2[C@H](O)C[C@@H]2[C@@]4(C)CC[C@H](O)C(C)(C)[C@@H]4C(=O)C[C@]23C)O1 | 1180 nM | 
20 | C=CCO[C@H]1C[C@]2(C)[C@H](C[C@@H](O)[C@@H]3[C@@H]([C@@]4(C)CCCC(C)(C)O4)CC[C@]32C)[C@@]2(C)CCC(=O)C(C)(C)[C@H]12 | 910 nM | 
21 | CCOC(=O)NC(=S)O[C@H]1CC[C@]2(C)[C@H]3C[C@@H](O)[C@@H]4[C@@H]([C@@]5(C)CCCC(C)(C)O5)CC[C@@]4(C)[C@]3(C)CC(=O)[C@H]2C1(C)C | 1380 nM | 
22 | CC1(C)CCC[C@](C)([C@H]2CC[C@]3(C)[C@@H]2[C@H](O)C[C@@H]2[C@@]4(C)CCC(=O)C(C)(C)[C@@H]4C(=O)C[C@]23C)O1 | 810 nM | 
23 | C[C@H]1O[C@@H](O[C@H]2[C@@H](O)C[C@H](O[C@H]3[C@@H](O)C[C@H](O[C@H]4CC[C@@]5(C)[C@H](CC[C@@H]6[C@@H]5C[C@@H](O)[C@]5(C)[C@@H](C7=CC(=O)OC7)CC[C@]65O)C4)O[C@@H]3C)O[C@@H]2C)C[C@H](O)[C@@H]1O [DIGOXIN] |  | 50%
24 | C=CCO[C@H]1CC[C@]2(C)[C@H]3C[C@@H](O)[C@@H]4[C@@H]([C@@]5(C)CCCC(C)(C)O5)CC[C@@]4(C)[C@]3(C)CC(=O)[C@H]2C1(C)C | 1050 nM | 
25 | CC1(C)CCC[C@](C)([C@H]2CC[C@]3(C)[C@@H]2[C@H](O)C[C@@H]2[C@@](C)(CCC(=O)O)CC(=O)C[C@]23C)O1 | 540 nM | 
26 | CC1(C)CCC[C@](C)([C@H]2CC[C@]3(C)[C@@H]2[C@H](O)C[C@@H]2[C@@]4(C)Cc5c([nH]c6ccccc56)C(C)(C)[C@@H]4C(=O)C[C@]23C)O1 | 770 nM | 
27 | CC1(C)CCC[C@](C)([C@H]2CC[C@]3(C)[C@@H]2[C@H](O)C[C@@H]2[C@@]4(C)CC[C@H](O)C(C)(C)[C@@H]4[C@@H](O)C[C@]23C)O1 [PANAXATRIOL] | 1090 nM | 
28 | COC(=O)CC[C@]1(C)[C@H]2C[C@@H](O)[C@@H]3[C@@H]([C@@]4(C)CCCC(C)(C)O4)CC[C@@]3(C)[C@]2(C)CC(=O)[C@H]1C(C)(C)O | 260 nM | 0%
